{"source": "patent US7785607B2", "about": "(priority 2004, dated 2010)", "test_system": "IFN-gamma-producing T lymphocytes (PBMC)", "type": "cell-based, human", "conditions": "for SFCs/2.5 × 10^5 cells: μg/mL: proteins 2 each, ESAT-6 pool 50, CFP-10 pool 8, both pools 58, PHA 1, PPD 10", "note": "Where two headings read alike, the source gives them in different places.", "data": [{"substance": "phytohemagglutinin [PHA]", "values": [{"measurement": "Absolute value (spots in control wells subtracted)", "value": 237}, {"measurement": "response scored positive or negative", "value": "positive"}, {"measurement": "SFCs/2.5 × 10^5 cells", "setting": "[…], mean of duplicate wells", "value": 240, "unit": "SFCs/2.5 × 10^5 cells"}, {"measurement": "Absolute value (spots in control wells subtracted)", "setting": "sample 1b latent tuberculosis", "value": 236}, {"measurement": "SFCs/2.5 × 10^5 cells", "setting": "sample 1b latent tuberculosis, mean of duplicate wells", "value": 240, "unit": "SFCs/2.5 × 10^5 cells"}, {"measurement": "response scored positive or negative", "setting": "sample 1e anergic subject", "value": "negative"}, {"measurement": "Absolute value (spots in control wells subtracted)", "setting": "sample 1e anergy", "value": 6}, {"measurement": "SFCs/2.5 × 10^5 cells", "setting": "sample 1e anergy", "value": 11, "unit": "SFCs/2.5 × 10^5 cells"}, {"measurement": "response scored positive or negative", "setting": "sample 1d healthy control", "value": "positive"}]}]}
